The values below come from US6147073A, “Substituted tetralymethylen-Oxindoles analogues as tyrosine kinase inhibitors” (Pharmacia & Upjohn S.p.A., priority 1996, dated 2000).

The IC50 is the concentration at which inhibition is half-maximal.

The test system of one assay is K562 cells. Nature of the assay: K562 Cell Growth Inhibition Assay. It counts as cell-based. Particulars: human myelogenous leukemia cell line, cell count after 72 h vs untreated control. As for the experimental part: K562 cells, a human myelogenous leukemia cell line, were seeded into a 24 wells tissue culture plate (Falcon 3047) (10000/well) in the presence of increasing concentrations of the compounds.
After 72 h, cells were harvested and were counted using a cell counter (Coulter Counter-ZM). The percent of inhibition was evaluated in respect to the untreated control cells.

The target in assay [1] is p45 v-abl tyrosine kinase. Nature of the assay: p45 v-abl Kinase Assay ((Val^5)-angiotensin II phosphorylation). It counts as biochemical, Abelson murine leukemia virus. Particulars: purified abl-kinase 40 ng; peptide 2 mM, ATP 50 μM; pH 8.0, 30° C. As for the experimental part: The enzyme used in our tests is the p45 v-abl tyrosine kinase which represents the catalytic domain of the Abelson tyrosine kinase (isolated from the Abelson murine leukemia virus). The p45 v-abl kinase is produced and isolated as described by Wang et al. in J.Biol.Chem. 260, 64 (1985) and by Ferguson et al. in J.Biol.Chem. 260, 3652 (1985) and in Biochem.J. 257, 321 (1989).
(Val^5)-angiotensin II phosphorylation is performed by incubation with 40 ng of purified abl-kinase and (γ-^32 P) ATP, in 50 μl of buffer containing Tris-HCl 25 mM, pH 8.0, MgCl2 10 mM and dithiothreitol 0.1 mM (kinase buffer). The reaction mixture is incubated for the indicated time at 30° C. and the reaction stopped by adding 50 μl of 5% trichloracetic acid. After a brief incubation on ice the tubes are centrifuged. The supernatants are spotted on phosphocellulase paper squares (Whatman P-81) and washed extensively in acetic acid. The radioactivity bound to dried phosphocellulose squares is measured in a liquid scintillation counter. IC50 values are calculated from triplicated determination of each experimental point. Each inhibitor is tested at concentrations ranging from […] in the presence of fixed concentrations of peptide (2 mM) and ATP (50 μM).

Each structure is given as a SMILES string. Counter-ions that a name gives are not always drawn.

`NC(CCC(=O)O)C(=O)Nc1ccc2c(c1)C(=Cc1cc(O)c3c(c1O)CCCC3)C(=O)N2` (centres unmarked) [5-(glutamylamino)-3-(1,4-dihydroxy-2-tetralylmethylen)-2-oxindole]: the figures for the half-maximal inhibitory concentration (IC50) (in the assay with K562 cells; in assay [1]) were 5.97 µM and 10 µM, respectively.
As for `CC(NC(=O)OC(C)(C)C)C(=O)Nc1ccc2c(c1)C(=Cc1cc(O)c3c(c1O)CCCC3)C(=O)N2` (centres unmarked) [5-(N-tert-butoxycarbonylalanylamino)-3-(1,4-dihydroxy-2-tetralylmethylen)-2-oxindole], the IC50 came out at 5.86 µM in the assay on K562 cells (K562) and 1.56 µM in assay [1].
In the same order, the values of `CC(N)C(=O)NC(C)C(=O)Nc1ccc2c(c1)C(=Cc1cc(O)c3c(c1O)CCCC3)C(=O)N2` (centres unmarked) [5-(alanylalanylamino)-3-(1,4-dihydroxy-2-tetralylmethylen)-2-oxindole trifluoroacetate] are 5.3 µM and 3.12 µM.
Take `CC(N)C(=O)Nc1ccc2c(c1)C(=Cc1cc(O)c3c(c1O)CCCC3)C(=O)N2` (centres unmarked) [5-(alanylamino)-3-(1,4-dihydroxy-2-tetralylmethylen)-2-oxindole]: the values for the IC50 (with K562 cells (K562); in assay [1]) were 8.31 µM and 10 µM, respectively.
